Like-named read-outs stand apart in the source and are kept apart here.
Key:
Type in all cases: in vivo
[1] = tested on: Apis mellifera; test: Greenhouse test / residue test / bees: mortality after contact with treated tomato leaves; conditions: 100 g a.s./ha
Text: Der Versuch wurde wie folgt durchgeführt:
Die Tomatenpflanzen wurden im Gewächshaus mit den Testverbindungen bzw. der Referenzsubstanz behandelt (Spritzappliaktion, 3 fache Wiederholung). 1, 3, 6 und 13 Tage nach Behandlung (DAA) wurden Blätter entnommen (je 5 Blattproben pro Behandlung) und in Boxen gegeben. In jede Box wurden 10 Bienen transferiert und die Boxen wurden unter kontrollierten Bedingungen aufbewahrt, wobei die Bienen mit Zuckerlösung gefüttert wurden. 24, 48 und 72 nach Transfer der Bienen wurde deren Mortalität bestimmt. Tabelle 9 (siehe auch Figur 9)

[2] = tested on: Apis mellifera; test: Tunnel test / spray application / bees: foraging activity; conditions: 150 g a.s./ha
Text: (§1) Der Test wurde gemäß EPPO (European Plant Protection Organisation) Leitlinie 170 wie folgt durchgeführt:
Während einer Minute werden in einem abgegrenzten Bereich von 2 x 1 m^2 die Bienen gezählt, die auf Blüten absitzen. Tabelle 3 (siehe auch Figur 3)

[3] = tested on: Apis mellifera; conditions: 150 g a.s./ha
Text: as §1
Die Mortalität von Arbeiterbienen vor dem Bienenstock wird mittels einer Falle für tote Bienen (dead bee trap) bestimmt. Die Falle besteht aus Maschendraht und ist vor dem Bienenstock angebracht. Einzelne, lebende Bienen können die Maschen des Drahts passieren, der Transport toter Bienen durch die Maschen ist nicht möglich, weswegen tote Bienen sich in der Falle ansammeln. Tabelle 1 (siehe auch Figur 1)

[4] = tested on: Apis mellifera; test: Tunnel test / spray application / bees: brood development (share of comb cells); conditions: 150 g a.s./ha
Text: as §1
Über alle Waben eines Bienenstocks wird der jeweilige Anteil an Zellen bestimmt, der durch Pollen, Nektar, Eier, Larven oder Puppen belegt ist bzw. leer ist. […]

[5] = tested on: Apis mellifera; test: Tunnel test / spray application / bees: acute mortality of pupae in front of the hive; conditions: for Zahl toter Puppen: 150 g a.s./ha
Text: as §1
Tabelle 2 (siehe auch Figur 2)

[6] = leaves taken 1 Tag nach Behandlung, 24 h contact
[7] = leaves taken 1 Tag nach Behandlung, 48 h contact
[8] = leaves taken 1 Tag nach Behandlung, 72 h contact
[9] = leaves taken 3 Tage nach Behandlung, 24 h contact
[10] = leaves taken 3 Tage nach Behandlung, 48 h contact
[11] = leaves taken 3 Tage nach Behandlung, 72 h contact
[12] = leaves taken 6 Tage nach Behandlung, 24 h contact
[13] = leaves taken 6 Tage nach Behandlung, 48 h contact
[14] = leaves taken 6 Tage nach Behandlung, 72 h contact
[15] = leaves taken 13 Tage nach Behandlung, 24 h contact
[16] = leaves taken 13 Tage nach Behandlung, 48 h contact
[17] = leaves taken 13 Tage nach Behandlung, 72 h contact

O=C1C=C(N(Cc2ccc(Cl)nc2)C2CC2)CO1 [I-9, 4-{[(6-Chlorpyrid-3-yl)methyl](cyclopropyl)amino}furan-2(5H)-on]
Mortalität [1, 6]: 6% | Mortalität [1, 7]: 9% | Mortalität [1, 8]: 13% | Mortalität [1, 9]: 2% | Mortalität [1, 10]: 3% | Mortalität [1, 11]: 4% | Mortalität [1, 12]: 1% | Mortalität [1, 13]: 2% | Mortalität [1, 14]: 5% | Mortalität [1, 15]: 8,7% | Mortalität [1, 16]: 11% | Mortalität [1, 17]: 12%

CCOC(=O)NCCOc1ccc(Oc2ccccc2)cc1 [Fenoxycarb, reference compound]
Aktivität der Nahrungssuche, Zahl der Bienen / min / m^2 ([2]; 0 DAA a (09:30 Uhr)): 26,2 Bienen / min / m^2 | Aktivität der Nahrungssuche, Zahl der Bienen / min / m^2 ([2]; 0 DAA c (14:15 Uhr)): 38,7 Bienen / min / m^2 | Aktivität der Nahrungssuche, Zahl der Bienen / min / m^2 ([2]; 0 DAA e (17:15 Uhr)): 46 Bienen / min / m^2 | Aktivität der Nahrungssuche, Zahl der Bienen / min / m^2 ([2]; 1 DAA b (15:30 Uhr)): 19 Bienen / min / m^2 | Aktivität der Nahrungssuche, Zahl der Bienen / min / m^2 ([2]; 2 DAA): 32,3 Bienen / min / m^2 | Aktivität der Nahrungssuche, Zahl der Bienen / min / m^2 ([2]; 3 DAA): 38,7 Bienen / min / m^2 | Aktivität der Nahrungssuche, Zahl der Bienen / min / m^2 ([2]; 6 DAA): 38,8 Bienen / min / m^2 | Aktivität der Nahrungssuche, Zahl der Bienen / min / m^2 ([2]; -1 DAA (before application)): 27,3 Bienen / min / m^2 | Aktivität der Nahrungssuche, Zahl der Bienen / min / m^2 ([2]; -2 DAA (before application)): 33,7 Bienen / min / m^2 | Aktivität der Nahrungssuche, Zahl der Bienen / min / m^2 ([2]; -3 DAA (before application)): 25 Bienen / min / m^2 | Zahl toter Arbeiterbienen ([3]; 0 DAA b (15:15 Uhr)): 0 | Zahl toter Arbeiterbienen ([3]; 0 DAA c (17:15 Uhr)): 0 | Zahl toter Arbeiterbienen ([3]; 1 DAA): 1,3 | Zahl toter Arbeiterbienen ([3]; 2 DAA): 0,7 | Zahl toter Arbeiterbienen ([3]; 3 DAA): 0 | Zahl toter Arbeiterbienen ([3]; 4 DAA): 2 | Zahl toter Arbeiterbienen ([3]; 5 DAA): 1,3 | Zahl toter Arbeiterbienen ([3]; 6 DAA): 3 | Zahl toter Arbeiterbienen ([3]; 11 DAA): 1 | Zahl toter Arbeiterbienen ([3]; -3 DAA (before application)): 1 | Anteil an Zellen: Eier ([4]; 1 Tag vor Applikation): 12,5% | Anteil an Zellen: Larven ([4]; 1 Tag vor Applikation): 14,2% | Anteil an Zellen: Leer ([4]; 1 Tag vor Applikation): 25,8% | Anteil an Zellen: Nektar ([4]; 1 Tag vor Applikation): 13,3% | Anteil an Zellen: Pollen ([4]; 1 Tag vor Applikation): 2,2% | Anteil an Zellen: Puppen ([4]; 1 Tag vor Applikation): 31,9% | Anteil an Zellen: Eier ([4]; 6 Tage nach Applikation): 12,2% | Anteil an Zellen: Larven ([4]; 6 Tage nach Applikation): 0,3% | Anteil an Zellen: Leer ([4]; 6 Tage nach Applikation): 29,7% | Anteil an Zellen: Nektar ([4]; 6 Tage nach Applikation): 20,8% | Anteil an Zellen: Pollen ([4]; 6 Tage nach Applikation): 6,7% | Anteil an Zellen: Puppen ([4]; 6 Tage nach Applikation): 30,3% | Anteil an Zellen: Eier ([4]; 14 Tage nach Applikation): 18,3% | Anteil an Zellen: Larven ([4]; 14 Tage nach Applikation): 10,6% | Anteil an Zellen: Leer ([4]; 14 Tage nach Applikation): 52,2% | Anteil an Zellen: Nektar ([4]; 14 Tage nach Applikation): 9,2% | Anteil an Zellen: Pollen ([4]; 14 Tage nach Applikation): 5,3% | Anteil an Zellen: Puppen ([4]; 14 Tage nach Applikation): 4,4% | Anteil an Zellen: Eier ([4]; 27 Tage nach Applikation): 18,6% | Anteil an Zellen: Larven ([4]; 27 Tage nach Applikation): 7,2% | Anteil an Zellen: Leer ([4]; 27 Tage nach Applikation): 23,1% | Anteil an Zellen: Nektar ([4]; 27 Tage nach Applikation): 21,9% | Anteil an Zellen: Pollen ([4]; 27 Tage nach Applikation): 4,7% | Anteil an Zellen: Puppen ([4]; 27 Tage nach Applikation): 24,4% | Zahl der Larven ([4]; result in words, 6 Tage nach Applikation): starke Abnahme | Zahl der Puppen ([4]; result in words, 14 Tage nach Applikation): starke Abnahme | Zahl toter Puppen ([5]; 0 DAA c (17:15 Uhr)): 0 | Zahl toter Puppen ([5]; 1 DAA): 0 | Zahl toter Puppen ([5]; 2 DAA): 0 | Zahl toter Puppen ([5]; 5 DAA): 0 | Zahl toter Puppen ([5]; 6 DAA): 0 | Zahl toter Puppen ([5]; 11 DAA): 9 | Zahl toter Puppen ([5]; 14 DAA): 16,7 | Zahl toter Puppen ([5]; 18 DAA): 26,7 | Zahl toter Puppen ([5]; 21 DAA): 0 | Zahl toter Puppen ([5]; 25 DAA): 1 | Zahl toter Puppen ([5]; -3 DAA (before application)): 0 | Mortalität von Puppen vor dem Bienenstock ([5]; result in words, tunnel test, spray, I-5 75 und 150 g a.s./ha, Fenoxycarb 150 g a.s./ha): 11-18 Tage nach Applikation eine Mortalität von Puppen

CN(Cc1ccc(Cl)nc1)C1=CC(=O)OC1 [I-10, 4-{[(6-Chlorpyrid-3-yl)methyl](methyl)amino}furan-2(5H)-on]
Mortalität [1, 6]: 5% | Mortalität [1, 7]: 5% | Mortalität [1, 8]: 6% | Mortalität [1, 9]: 3% | Mortalität [1, 10]: 7% | Mortalität [1, 11]: 8% | Mortalität [1, 12]: 3% | Mortalität [1, 13]: 4% | Mortalität [1, 14]: 7% | Mortalität [1, 15]: 6,7% | Mortalität [1, 16]: 6,7% | Mortalität [1, 17]: 6,7%

Source: patent publication EP2193713A1, “Method for fighting animal pests without damaging pollinating insects” (Bayer CropScience AG, priority 2008, dated 2010)
